The record followed here is ChEMBL document CHEMBL1152272, “Inhibitor scaffolds for 2-oxoglutarate-dependent histone lysine demethylases” (J Med Chem, 2008).

Assay [1] in a line: Inhibition of 2-oxoglutarate-dependent human JMJD2E in presence of 50 uM Fe by FDH coupled assay.
The nature of assay [2]: Inhibition of 2-oxoglutarate-dependent human JMJD2E preincubated for 30 mins by FDH coupled assay.
Assay [3] can be described thus: Inhibition of 2-oxoglutarate-dependent human JMJD2E in presence of excess 2-oxoglutarate and 10 uM Fe2 by FDH coupled assay.
Assay [4] in a line: Inhibition of 2-oxoglutarate-dependent human JMJD2E in presence of excess H3K9me3 peptide and 10 uM Fe2 by FDH coupled assay.
Assay [5] deals with Prolyl hydroxylase EGLN3 (Homo sapiens, UniProt Q9H6Z9). Description: Inhibition of human recombinant HIF PHD3.
Assay [6] in a line: Inhibition of human collagene prolyl-3-hydroxylase.
The target in assay [7] is Prolyl hydroxylase EGLN2 (Homo sapiens, UniProt Q96KS0). Description: Inhibition of human recombinant HIF PHD1.
The nature of assay [8]: Inhibition of human collagene prolyl-4-hydroxylase.
Assay [9] deals with T1, Egl nine homolog 1 (Homo sapiens, UniProt Q9GZT9). Kind of assay: Inhibition of 2-oxoglutarate-dependent human recombinant HIF PHD2 preincubated for 1 hr.
The target in assay [10] is Hypoxia-inducible factor 1-alpha inhibitor (Homo sapiens, UniProt Q9NWT6). Description: Inhibition of human FIH.
In assay [11] the target is T1, Egl nine homolog 1. Kind of assay: Inhibition of human recombinant PHD2.

Molecules are shown by their SMILES.

Prolyl hydroxylase EGLN2, sequence (Q96KS0 whole entry): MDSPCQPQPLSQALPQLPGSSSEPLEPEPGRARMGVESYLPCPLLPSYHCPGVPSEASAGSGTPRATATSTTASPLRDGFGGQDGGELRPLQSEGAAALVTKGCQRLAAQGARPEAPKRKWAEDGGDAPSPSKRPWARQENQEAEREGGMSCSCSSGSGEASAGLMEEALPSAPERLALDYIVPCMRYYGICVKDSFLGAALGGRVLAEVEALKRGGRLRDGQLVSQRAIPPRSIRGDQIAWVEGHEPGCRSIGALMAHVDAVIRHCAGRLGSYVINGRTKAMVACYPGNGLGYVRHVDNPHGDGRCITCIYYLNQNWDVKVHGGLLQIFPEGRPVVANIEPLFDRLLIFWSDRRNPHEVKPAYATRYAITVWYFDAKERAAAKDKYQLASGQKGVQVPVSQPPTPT
T1 sequence (Q9GZT9 whole entry): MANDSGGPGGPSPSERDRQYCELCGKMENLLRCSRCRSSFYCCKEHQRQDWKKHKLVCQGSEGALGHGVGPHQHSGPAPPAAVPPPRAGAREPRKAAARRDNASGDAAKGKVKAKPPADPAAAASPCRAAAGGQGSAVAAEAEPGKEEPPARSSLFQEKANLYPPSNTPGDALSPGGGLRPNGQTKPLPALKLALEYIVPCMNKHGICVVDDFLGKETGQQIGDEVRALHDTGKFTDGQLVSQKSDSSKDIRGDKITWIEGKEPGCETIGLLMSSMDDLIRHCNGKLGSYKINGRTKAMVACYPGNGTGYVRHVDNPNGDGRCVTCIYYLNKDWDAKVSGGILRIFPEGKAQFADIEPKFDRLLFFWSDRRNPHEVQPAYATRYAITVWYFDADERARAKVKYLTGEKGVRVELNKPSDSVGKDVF
Prolyl hydroxylase EGLN3, sequence (Q9H6Z9 whole entry): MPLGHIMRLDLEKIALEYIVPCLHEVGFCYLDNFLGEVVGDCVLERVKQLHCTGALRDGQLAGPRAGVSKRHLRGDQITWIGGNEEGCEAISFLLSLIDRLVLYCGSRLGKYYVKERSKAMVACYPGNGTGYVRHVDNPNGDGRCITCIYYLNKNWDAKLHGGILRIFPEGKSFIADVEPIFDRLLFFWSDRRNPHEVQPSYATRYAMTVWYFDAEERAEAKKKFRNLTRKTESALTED
Hypoxia-inducible factor 1-alpha inhibitor, sequence (Q9NWT6 whole entry): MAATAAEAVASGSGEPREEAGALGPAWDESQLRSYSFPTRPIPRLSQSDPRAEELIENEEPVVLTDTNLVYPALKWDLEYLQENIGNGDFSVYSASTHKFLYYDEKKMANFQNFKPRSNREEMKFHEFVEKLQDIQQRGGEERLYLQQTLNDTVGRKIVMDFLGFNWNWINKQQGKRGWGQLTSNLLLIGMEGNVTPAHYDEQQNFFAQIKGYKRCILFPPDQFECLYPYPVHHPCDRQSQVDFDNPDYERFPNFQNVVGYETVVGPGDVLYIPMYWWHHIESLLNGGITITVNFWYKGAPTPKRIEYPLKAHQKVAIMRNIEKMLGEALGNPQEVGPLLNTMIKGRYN

Take `O=C(NO)c1cccc(O)c1`: the IC50 (in general, the point on the concentration scale where inhibition reaches its midpoint) in assay [1] came out at 19 µM; in [2] it was 4.8 µM; in assay [3], 300 µM; in assay [4], 28 µM.
`O=C(O)c1ccncc1C(=O)O`: the IC50 in assay [3] and in assay [4] was more than 10000 µM each time.
For the molecule `O=C(O)c1ccnc(C(=O)O)c1`, the IC50 in assay [1] came to 1.8 µM; in assay [3], 4.7 µM. Also, the Ki – broadly, the equilibrium dissociation constant of an inhibitor or competing ligand from its target – in assay [5] turned out to be 7 µM; in [6], 9 µM; in assay [7], 7 µM; in [8], 2 µM.
With `O=C(O)c1cncc(C(=O)O)c1`, the IC50 in [3] and in assay [4] was more than 10000 µM each time.
On to `O=C(O)C(=O)N[C@H](CCc1ccccc1)C(=O)O`, for which the IC50 in [2] was 39 µM; in assay [3], 270 µM; in assay [4], 100 µM.
For the molecule `O=C(O)C(=O)N[C@H](Cc1ccccc1)C(=O)O`, in [3], the IC50 is 590 µM.
Turning to `O=C(O)c1cc(C(=O)O)ncn1`, the values for the IC50 in assay [3] and in assay [4] were 73 µM and 27 µM, respectively.
Turning to `O=C(NO)c1cc(O)ccc1Oc1ccccc1`, the results for the IC50 in assay [3] and in assay [4] were 340 µM and 360 µM, respectively.
Take `COc1ccc(O)cc1C(=O)NO`: the IC50 is 160 µM in [1], 300 µM in assay [3] and 230 µM in assay [4].
With `CCCC(=O)O` [BUTYRIC ACID], the IC50 in assay [3] and in [4] was more than 10000 µM in each case.
Turning to `O=C(O)c1cccc(C(=O)O)n1` [DIPICOLINIC ACID], the IC50 came to 120 µM in [1], 250 µM in assay [3] and 120 µM in assay [4].
As for `O=C(O)/C=C/C(=O)O` [FUMARIC ACID], the IC50 in assay [9] was 3 µM; in [2], 2300 µM; in assay [3] it was more than 10000 µM; in assay [4], 1600 µM.
Molecule `O=C(O)CNC(=O)C(=O)O` [N-OXALYLGLYCINE] yielded a Ki in assay [10] of 1200 µM.
For `O=C(O)c1ccc(C(=O)O)nc1` [PYRIDINE-2,5-DICARBOXYLIC ACID], the Ki was more than 300 µM in assay [5]; more than 1000 µM in [6]; more than 300 µM in [7]; 0.8 µM in [8]; more than 300 µM in [11]. The values for the IC50 in assay [3] and in assay [4] were 1900 µM and 180 µM, respectively.
For `O=C(O)c1cccnc1C(=O)O` [QUINOLINIC ACID], the IC50 is more than 10000 µM in [3] and more than 5000 µM in [4].
As to `O=C(O)CCC(=O)O` [SUCCINIC ACID], the IC50 was 320 µM in [2], more than 10000 µM in assay [3] and 710 µM in assay [4].
`CC(/C=C/C(=O)NO)=C\[C@@H](C)C(=O)c1ccc(N(C)C)cc1` [TRICHOSTATIN]: half-maximal inhibition in [2] (IC50) was put at 28 µM.
